Data reported in patent EP2915814A2, “Crystalline salts of sitagliptin” (priority 2008, dated 2010).
Structures can show the parent of a compound that is named as a salt. Marks after values point to notes of the source that are not given here.

Columns and labels:
[1] = Hygroscopicity studies (water content after storage at 43 %, 75 % and 93 % relative humidity); assay type: physicochemical; conditions: for Initial water content: initial sample; for Hygroscopicity 2 weeks 43 % rh: 2 weeks at 43 % rh; for Hygroscopicity 2 weeks 43 % rh / Hygroscopicity 2 weeks 75 % rh / Hygroscopicity 2 weeks 93 % rh: % Equilibrium moisture content, ss = semi solid state of sample, β = solid first changed into liquid and solidified again; for Hygroscopicity 2 weeks 75 % rh: 2 weeks at 75 % rh; for Hygroscopicity 2 weeks 93 % rh: 2 weeks at 93 % rh; for change during the hygroscopicity studies: 43 %, 75 % and 93 % relative humidity, confirmed by DSC of samples kept at 93 % relative humidity for 2 weeks
Text: The salts of the present invention and the free base were studied under three different humidity conditions (43 % relative humidity, 75 % relative humidity, and 93 % relative humidity).

[2] = Stability studies (storage at 60 °C in closed bottles or at 40 °C / 75 % RH in an open bottle; related substances by HPLC); conditions: for Related Substances 2 W 40°C/75 % RH open / Related Substances 2 W 60°C closed: 2 weeks, 20160 min; for Related Substances 4 w 40°C/75 % RH closed / Related Substances 4 w 40°C/75 % RH open / Related Substances 4 w 60°C Closed bottle: 4 weeks, 40320 min; for Related Substances 12 weeks 40°C/75 % RH closed bottle / Related Substances 12 weeks 40°C/75 % RH open bottle: 120960 min; for Initial Related Substances: before storage
[3] = closed bottle, two weeks at 60 °C
[4] = closed bottle, four weeks at 60 °C
[5] = open bottle, twelve weeks at 40 °C and 75 % RH

SMILES	Related Substances 2 W 40°C/75 % RH open [2] [%]	Related Substances 2 W 60°C closed [2] [%]	Related Substances 4 w 40°C/75 % RH closed [2] [%]	Related Substances 4 w 40°C/75 % RH open [2] [%]	Related Substances 4 w 60°C Closed bottle ([2]; closed bottle) [%]	Related Substances 12 weeks 40°C/75 % RH closed bottle ([2]; closed bottle) [%]	Related Substances 12 weeks 40°C/75 % RH open bottle ([2]; open bottle) [%]	Initial Related Substances [2] [%]	stability (degradation, related substances by HPLC) [2, 3]	Hygroscopicity 2 weeks 43 % rh [1]	Hygroscopicity 2 weeks 75 % rh [1]	Hygroscopicity 2 weeks 93 % rh [1]	Initial water content ([1]; before storage) [%]	other results
N[C@@H](CC(=O)N1CCn2c(nnc2C(F)(F)F)C1)Cc1cc(F)c(F)cc1F [E: Sulfate I, Sitagliptin Sulfate Form I]	0.10	0.08	0.02	0.06	0.02	0.03	0.08	0.08	–	–	–	–	–	Hygroscopicity (water content) ([1]; 2 weeks 43 % rh): 1.12%; Hygroscopicity (water content) ([1]; 2 weeks 75 % rh): 1.0%; Hygroscopicity (water content) ([1]; 2 weeks 93 % rh): 2.81%; Initial water content ([1]; before humidity storage): 0.69%; stability (degradation, related substances by HPLC) ([2]; closed bottle, four weeks at 60 °C, listed as sulfate (solvated)): stable; stability (degradation, related substances by HPLC) ([2]; closed bottle, two weeks at 60 °C, listed as sulfate (solvated)): stable
N[C@@H](CC(=O)N1CCn2c(nnc2C(F)(F)F)C1)Cc1cc(F)c(F)cc1F [maleate (solvated), Sitagliptin Maleate Form I]	–	–	–	–	–	–	–	–	degradation was observed	–	–	–	–	–
N[C@@H](CC(=O)N1CCn2c(nnc2C(F)(F)F)C1)Cc1cc(F)c(F)cc1F [Q: HCl II]	0.36	0.23	0.30	0.53	0.30	0.34	0.44	0.20	–	–	–	–	–	–
N[C@@H](CC(=O)N1CCn2c(nnc2C(F)(F)F)C1)Cc1cc(F)c(F)cc1F [Q : HCl II]	–	–	–	–	–	–	–	–	–	0.32%	0.44%	0.83%	0.27	–
N[C@@H](CC(=O)N1CCn2c(nnc2C(F)(F)F)C1)Cc1cc(F)c(F)cc1F [maleate (non solvated), Sitagliptin Maleate Form II]	–	–	–	–	–	–	–	–	stable	–	–	–	–	–
N[C@@H](CC(=O)N1CCn2c(nnc2C(F)(F)F)C1)Cc1cc(F)c(F)cc1F [phosphate monohydrate, sitagliptin dihydrogenphosphate, reference compound]	–	–	–	–	–	–	–	–	stable	–	–	–	–	change during the hygroscopicity studies [1]: did not show much change
N[C@@H](CC(=O)N1CCn2c(nnc2C(F)(F)F)C1)Cc1cc(F)c(F)cc1F [maleate, sitagliptin maleate]	–	–	–	–	–	–	–	–	–	–	–	–	–	change during the hygroscopicity studies [1]: did not show much change; stability (degradation, related substances by HPLC) [2, 4]: showed a degradation
N[C@@H](CC(=O)N1CCn2c(nnc2C(F)(F)F)C1)Cc1cc(F)c(F)cc1F [B: HCl I, Sitagliptin Hydrochloride Form I]	0.05	0.01	0.01	0.01	0.01	0.14	0.15	0.04	–	–	–	–	–	Hygroscopicity (water content) ([1]; 2 weeks 43 % rh): 3.86%; Hygroscopicity (water content) ([1]; 2 weeks 75 % rh): 4.36%; Hygroscopicity (water content) ([1]; 2 weeks 93 % rh): 4.49%; Initial water content ([1]; before humidity storage): 1.4%; stability (degradation, related substances by HPLC) ([2]; closed bottle, four weeks at 60 °C, listed as HCl form I): stable; stability (degradation, related substances by HPLC) ([2]; closed bottle, two weeks at 60 °C, listed as HCl form I): stable; stability (degradation, related substances by HPLC) ([2]; open bottle, twelve weeks at 40 °C and 75 % RH, listed as HCl form I): stable
N[C@@H](CC(=O)N1CCn2c(nnc2C(F)(F)F)C1)Cc1cc(F)c(F)cc1F [M: Phosphate H2O]	0.10	0.12	0.08	0.09	0.06	0.09	0.12	0.08	–	–	–	–	–	–
N[C@@H](CC(=O)N1CCn2c(nnc2C(F)(F)F)C1)Cc1cc(F)c(F)cc1F [N: Mesylate II]	0.16	0.16	0.08	0.08	0.12	0.07	0.11	0.11	–	2.89%	3.37%	4.04%	2.08	–
N[C@@H](CC(=O)N1CCn2c(nnc2C(F)(F)F)C1)Cc1cc(F)c(F)cc1F [A: Phosphate, Sitagliptin Phosphate]	0.21	0.50	0.31	0.16	0.38	0.57	0.37	0.39	stable	–	–	–	–	Hygroscopicity (water content) ([1]; 2 weeks 43 % rh): 0.41%; Hygroscopicity (water content) ([1]; 2 weeks 75 % rh): 0.48%; Hygroscopicity (water content) ([1]; 2 weeks 93 % rh): 0.82%; change during the hygroscopicity studies [1]: did not show much change; Initial water content ([1]; before humidity storage): 0.46%; stability (degradation, related substances by HPLC) [2, 4]: stable; stability (degradation, related substances by HPLC) [2, 5]: stable
N[C@@H](CC(=O)N1CCn2c(nnc2C(F)(F)F)C1)Cc1cc(F)c(F)cc1F [K: Mesylate I]	–	–	–	–	–	–	–	–	–	1.13%	0.49%	0.96%	0.68	–
N[C@@H](CC(=O)N1CCn2c(nnc2C(F)(F)F)C1)Cc1cc(F)c(F)cc1F [H: Glycolate]	0.24	1.81	0.49	0.61	4.06	1.09	0.99	0.05	–	2.24 ss %	β 4.81%	24.85** %	1.039	–
N[C@@H](CC(=O)N1CCn2c(nnc2C(F)(F)F)C1)Cc1cc(F)c(F)cc1F [J: Mesylate II]	–	–	–	–	–	–	–	–	–	2.58%	2.94%	3.23%	1.47	–
N[C@@H](CC(=O)N1CCn2c(nnc2C(F)(F)F)C1)Cc1cc(F)c(F)cc1F [C: Lactate, Sitagliptin Lactate]	0.34	0.43	0.28	0.33	0.49	0.56	0.59	0.16	degradation was observed	–	–	–	–	Hygroscopicity (water content) ([1]; 2 weeks 43 % rh): 0.54%; Hygroscopicity (water content) ([1]; 2 weeks 75 % rh): 0.5%; Hygroscopicity (water content) ([1]; 2 weeks 93 % rh): 28.77 * %; Initial water content ([1]; before humidity storage): 0.51%; stability (degradation, related substances by HPLC) [2, 4]: showed a degradation; stability (degradation, related substances by HPLC) [2, 5]: shows degradation
